From the NIST ThermoML archive (doi:10.1016/j.tca.2018.08.005)
± gives the expanded uncertainty stated by the source.

Columns and labels:
[1] = Molar enthalpy of transition or fusion; conditions: Crystal; DSC
[2] = Crystal; DTA

Molar enthalpy of transition or fusion [1]: 18 ± 1.84 kcal/mol
Normal melting temperature [2]: 35.00 ± 5 °C
SMILES: O.O.O.O.O.O.O.O.O.O.O=S(=O)([O-])[O-].[Na+].[Na+] [sodium sulfate decahydrate]
